Test results reported in ChEMBL document CHEMBL1201862, “PubChem BioAssay data set” (2004).
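96-well plates; 48 h exposure; 5 concentrations. Endpoints by linear interpolation between flanking doses. Not reached: highest tested concentration assigned. At the GI50, growth is halved.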 Active and inactive are the calls of the source. No stated cut-off is given here; in the data, active = GI50 up to about 1.1 µM and inactive = higher.

Key:
Test in all cases: inhibition of tumour cell growth, NCI panel, 48 h
[1] = test system: SF-539
[2] = test system: HOP-62
[3] = test system: HL-60
[4] = test system: OVCAR-5
[5] = test system: HCT-15
[6] = test system: Malme-3M
[7] = test system: KM-20L2
[8] = test system: HCT-116
[9] = test system: K562
[10] = test system: M19-MEL
[11] = test system: NCI-H226
[12] = test system: KM12
[13] = test system: RPMI-8226
[14] = test system: SN12C
[15] = test system: UO-31
[16] = test system: OVCAR-3
[17] = test system: A549
[18] = test system: SNB-19
[19] = test system: HOP-18
[20] = test system: MCF7
[21] = test system: LOX IMVI
[22] = test system: SNB-75
[23] = test system: CAKI-1
[24] = test system: SNB-78
[25] = test system: SK-MEL-5
[26] = test system: HT-29
[27] = test system: U-251
[28] = test system: SF-268
[29] = test system: IGROV-1
[30] = test system: UACC-257
[31] = test system: SK-MEL-28
[32] = test system: A498
[33] = test system: CCRF-CEM
[34] = test system: HCC 2998
[35] = test system: SW-620
[36] = test system: DMS-273
[37] = test system: MOLT-4
[38] = test system: NCI-H522
[39] = test system: DLD-1
[40] = test system: XF498
[41] = test system: OVCAR-4
[42] = test system: COLO 205
[43] = test system: NCI-H460
[44] = test system: RXF 393
[45] = test system: OVCAR-8
[46] = test system: UACC-62
[47] = test system: SK-MEL-2
[48] = test system: SF-295
[49] = test system: EKVX
[50] = test system: NCI/ADR-RES
[51] = test system: SK-OV-3
[52] = test system: DMS-114
[53] = test system: HOP-92
[54] = test system: NCI-H23
[55] = test system: MDA-MB-231
[56] = test system: ACHN
[57] = test system: DU-145
[58] = test system: T47D

COc1ccc(C2CC(c3sc(Nc4ccc(C)cc4)nc3C)=NN2)cc1 (centres undefined)
GI50 [1]: 15.4 µM (inactive) | GI50 [2]: 20.7 µM (inactive) | GI50 [3]: 7.64 µM (inactive) | GI50 [4]: 22.4 µM (inactive) | GI50 [5]: 15.1 µM | GI50 [6]: > 10 µM (inactive) | GI50 [7]: 16.1 µM (inactive) | GI50 [8]: 6.46 µM (inactive) | GI50 [9]: 12.8 µM (inactive) | GI50 [10]: > 44.1 µM (inactive) | GI50 [11]: 16.6 µM (inactive) | GI50 [12]: 15.2 µM (inactive) | GI50 [13]: 12.4 µM (inactive) | GI50 [14]: 14.1 µM (inactive) | GI50 [15]: 14.2 µM (inactive) | GI50 [16]: 15.8 µM (inactive) | GI50 [17]: 15.6 µM (inactive) | GI50 [18]: 15.7 µM (inactive) | GI50 [19]: 15.3 µM (inactive) | GI50 [20]: 14 µM (inactive) | GI50 [21]: 18.2 µM (inactive) | GI50 [22]: 14.8 µM (inactive) | GI50 [23]: 18 µM (inactive) | GI50 [24]: 22.1 µM (inactive) | GI50 [25]: 16 µM (inactive) | GI50 [26]: 11.8 µM (inactive) | GI50 [27]: 14.8 µM (inactive) | GI50 [28]: 15.8 µM (inactive) | GI50 [29]: > 40.8 µM (inactive) | GI50 [30]: 15.8 µM (inactive) | GI50 [31]: 16.8 µM (inactive) | GI50 [32]: 15.4 µM (inactive) | GI50 [33]: 11.1 µM (inactive) | GI50 [34]: 15.8 µM (inactive) | GI50 [35]: 18.8 µM (inactive) | GI50 [36]: 18.8 µM (inactive) | GI50 [37]: 8.34 µM (inactive) | GI50 [38]: 15.3 µM (inactive) | GI50 [39]: 14 µM (inactive) | GI50 [40]: 21 µM (inactive) | GI50 [41]: 13.3 µM (inactive) | GI50 [42]: 13.7 µM (inactive) | GI50 [43]: 14.9 µM (inactive) | GI50 [44]: 13.2 µM (inactive) | GI50 [45]: 15.5 µM (inactive) | GI50 [46]: 40 µM (inactive) | GI50 [47]: 15.8 µM (inactive) | GI50 [48]: 15 µM (inactive) | GI50 [49]: 20.5 µM (inactive) | GI50 [50]: 17.4 µM (inactive) | GI50 [51]: 24.4 µM (inactive) | GI50 [52]: 14.1 µM (inactive) | GI50 [53]: 14.2 µM (inactive) | GI50 [54]: 15.5 µM (inactive)

NC(CN(O)N=O)C(=O)O (centres undefined)
GI50 [55]: 55.7 µM (inactive) | GI50 [1]: 8.57 µM (inactive) | GI50 [3]: 9.4 µM (inactive) | GI50 [4]: 5.22 µM (inactive) | GI50 [6]: 54.5 µM (inactive) | GI50 [7]: 19 µM (inactive) | GI50 [10]: 14.1 µM (inactive) | GI50 [12]: 0.472 µM (active) | GI50 [17]: 0.202 µM (active) | GI50 [19]: 331 µM (inactive) | GI50 [21]: 0.267 µM (active) | GI50 [24]: 21.8 µM (inactive) | GI50 [56]: 1.85 µM (inactive) | GI50 [26]: 9.23 µM (inactive) | GI50 [36]: 0.817 µM (active) | GI50 [57]: 135 µM (inactive) | GI50 [37]: 20.1 µM (inactive) | GI50 [39]: 1.04 µM (active) | GI50 [40]: 5.71 µM (inactive) | GI50 [45]: 12.2 µM (inactive) | GI50 [47]: 95.9 µM (inactive) | GI50 [58]: 157 µM (inactive) | GI50 [48]: 5.01 µM (inactive) | GI50 [50]: 17.1 µM (inactive) | GI50 [52]: 0.309 µM (active)
